From patent publication US12157730B2, “Heteroaryl derivative, method for producing same, and pharmaceutical composition comprising same as effective component” (VORONOI INC., priority 2019, dated 2024)

target: T1, Ba/F3 cell EGFR Exon20 ins NPH (Homo sapiens, UniProt P00533, INS773NPH); assay: Ba/F3 cell proliferation suppression, EGFR Exon20 ins NPH; format: cell-based; conditions: GI50 class; Ba/F3 cell line with NPH inserted at Exon20 of EGFR; 72 hours
T1 construct: expressed in transfected cells; host or cells: Ba/F3
Experimental: The following experiment was carried out to evaluate the suppression activity of the compounds according to the present invention against proliferation of Ba/F3 and lung cancer cells which express EGFR mutations.
Of the cancer cell lines expressing the EGFR gene, A549 was cultured after adding 10% FBS (HyClone) to DMEM (Invitrogen), and RPMI-1640 (Invitrogen) with 10% FBS was used for the other cancer cells. For the Ba/F3 cells, RPMI-1640 with 10% FBS and 5 ng/ml IL-3 (R&D Systems) was used. The transduced Ba/F3 cells were cultured by adding 1 ug/ml puromycin (Invitrogen) to the same medium.
24 hours before treatment with the compounds, 3000 to 5000 cells were distributed into each well of a white clear bottom 96 well plate (Corning). The compounds were diluted in dimethylsulfoxide (dilution ratio 3:1; 12 concentrations total) and injected 0.5 ul each for a final concentration of 0.3 nM to 50 um. As for measurement of live cells, 72 hours after treatment with the compounds, a CellTiter-Glo luminescent cell-viability reagent (Promega) was used to store the cells at room temperature for 10 minutes, followed by measurement of luminescence using a reader (SynergyNeo, Biotek). Each test was repeated three times.
The result was calculated as a cell growth ratio (%) compared to a control. The program GraphPad Prism version 5.0 was used to draw the graphs and calculate the GI50 values.

Compound | Ba/F3 (NPH) Activity
C=CC(=O)Nc1cc(Nc2cc(N3OCC[C@@H]3c3cccc(C)c3F)ncn2)c(OC)cc1N1CC[C@@H](N(C)C)C1 [compound 860, N-(2-((R)-3-(dimethylamino)pyrolidine-1-yl)-5-((6-((R)-3-(2-fluoro-3-methylphenyl)isoxazolidine-2-yl)pyrimidine-4-yl)amino)-4-methoxyphenyl) acrylamide] | A (GI50 < 50 nM)
C=CC(=O)Nc1cc(Nc2cc(N3OCC[C@@H]3c3c(F)ccc(F)c3F)ncn2)c(OC)cc1N1CCC(N2CCOCC2)CC1 [compound 632, N-(4-methoxy-2-(4-morpholinopiperidine-1-yl)-5-((6-((R)-3-(2,3,6-trifluorophenyl)isoxazolidine-2-yl)pyrimidine-4-yl)amino)phenyl)acrylamide] | A (GI50 < 50 nM)
COc1cc(N2CCC(N3CCN(C4CC4)CC3)CC2)c(NC(=O)/C=C/CN(C)C)cc1Nc1cc(N2OCC[C@@H]2c2cc(F)cc(F)c2)ncn1 [Example 117, N-(2-(4-(4-cyclopropylpiperazine-1-yl)piperidine-1-yl)-5-((6-((R)-3-(3,5-difluorophenyl)isoxazolidine-2-yl)pyrimidine-4-yl)amino)-4-methoxyphenyl)-(E)-4-(dimethylamino) but-2-enamide] | A (GI50 < 50 nM)
C=CC(=O)Nc1cc(Nc2cc(N3OCC[C@@H]3c3ccc(Cl)c(Cl)c3F)ncn2)c(OC)cc1N1CC[C@@H](N2CCOCC2)C1 [Example 294, N-(5-((6-((R)-3-(3,4-dichloro-2-fluorophenyl)isoxazolidine-2-yl)pyrimidine-4-yl)amino)-4-methoxy-2-((R)-3-morpholinopyrolidine-1-yl)phenyl)acrylamide] | B (50 nM ≤ GI50 < 500 nM)
C=CC(=O)Nc1cc(Nc2cc(N3OCC[C@@H]3c3cc(F)cc(F)c3)ncn2)c(OC)cc1N1CC[C@@H](N2CCOCC2)C1 [Example 271, N-(5-((6-((R)-3-(3,5-difluorophenyl)isoxazolidine-2-yl)pyrimidine-4-yl)amino)-4-methoxy-2-((R)-3-morpholinopyrolidine-1-yl)phenyl)acrylamide] | B (50 nM ≤ GI50 < 500 nM)
C=CC(=O)Nc1cc(Nc2cc(N3OCC[C@@H]3c3ccc(C)nc3)ncn2)c(OC)cc1N1CCN(C2CCN(C)CC2)CC1 [Example 48, N-(4-methoxy-2-(4-(1-methylpiperidine-4-yl)piperazine-1-yl)-5-((6-((R)-3-(6-methylpyridine-3-yl)isoxazolidine-2-yl)pyrimidine-4-yl)amino)phenyl) acrylamide] | B (50 nM ≤ GI50 < 500 nM)
C=CC(=O)Nc1cc(Nc2cc(N3OCC[C@@H]3c3ccccc3)ncn2)c(OC)cc1N1CCC(N2CCN(CC)CC2)CC1 [Example 55, N-(2-(4-(4-ethylpiperazine-1-yl)piperidine-1-yl)-4-methoxy-5-((6-((R)-3-phenylisoxazolidine-2-yl)pyrimidine-4-yl)amino)phenyl) acrylamide] | A (GI50 < 50 nM)
C=CC(=O)Nc1cc(Nc2cc(N3OCC[C@@H]3c3ccc(F)c(Cl)c3)ncn2)c(OC)cc1N1CCC(N2CCOCC2)CC1 [compound 720, N-(5-((6-((R)-3-(3-chloro-4-fluorophenyl)isoxazolidine-2-yl)pyrimidine-4-yl)amino)-4-methoxy-2-(4-morpholinopiperidine-1-yl)phenyl)acrylamide] | A (GI50 < 50 nM)
C=CC(=O)Nc1cc(Nc2cc(N3OCC[C@@H]3c3cccc(C)c3F)ncn2)c(OC)cc1N1CCC(N2CCN(CC)CC2)CC1 [compound 318, N-(2-(4-(4-ethylpiperazine-1-yl)piperidine-1-yl)-5-((6-((R)-3-(2-fluoro-3-methylphenyl)isoxazolidine-2-yl)pyrimidine-4-yl)amino)-4-methoxyphenyl) acrylamide] | A (GI50 < 50 nM)
C=CC(=O)Nc1cc(Nc2cc(N3OCC[C@@H]3c3ccc(C)nc3)ncn2)c(OC)cc1N1CCN(CC)CC1 [Example 42, N-(2-(4-ethylpiperazine-1-yl)-4-methoxy-5-((6((R)-3-(6-methylpyridine-3-yl)isoxazolidine-2-yl)pyrimidine-4-yl)amino)phenyl) acrylamide] | B (50 nM ≤ GI50 < 500 nM)
C=CC(=O)Nc1cc(Nc2cc(N3OCC[C@@H]3c3ccc(Cl)c(Cl)c3F)ncn2)c(OC)cc1N1CCC(N2CCN(C(C)=O)CC2)CC1 [compound 774, N-(2-(4-(4-acetylpiperazine-1-yl)piperidine-1-yl)-5-((6-((R)-3-(3,4-dichloro-2-fluorophenyl)isoxazolidine-2-yl)pyrimidine-4-yl)amino)-4-methoxyphenyl) acrylamide] | B (50 nM ≤ GI50 < 500 nM)
C=CC(=O)Nc1cc(Nc2cc(N3OCC[C@@H]3c3ccc(F)cc3)ncn2)c(OC)cc1N1CCC(N2CCOCC2)CC1 [compound 786, N-(5-((6-((R)-3-(4-fluorophenyl)isoxazolidine-2-yl)pyrimidine-4-yl)amino)-4-methoxy-2-(4-morpholinopiperidine-1-yl)phenyl)acrylamide] | A (GI50 < 50 nM)
C=CC(=O)Nc1cc(Nc2cc(N3OCC[C@@H]3c3ccc(F)c(F)c3)ncn2)c(OC)cc1N1CCC(N2CCN(CC)CC2)CC1 [compound 545, N-(5-((6-((R)-3-(3,4-difluorophenyl)isoxazolidine-2-yl)pyrimidine-4-yl)amino)-2-(4-(4-ethylpiperazine-1-yl)piperidine-1-yl)-4-methoxyphenyl) acrylamide] | A (GI50 < 50 nM)
C=CC(=O)Nc1cc(Nc2cc(N3OCC[C@H]3c3c(F)cccc3F)ncn2)c(OC)cc1N1CCC(N2CCOCC2)CC1 [compound 897, N-(5-((6-((S)-3-(2,6-difluorophenyl)isoxazolidine-2-yl)pyrimidine-4-yl)amino)-4-methoxy-2-(4-morpholinopiperidine-1-yl)phenyl)acrylamide] | C (500 nM ≤ GI50 < 5000 nM)
C=CC(=O)Nc1cc(Nc2cc(N3OCC[C@H]3Cc3ccccc3)ncn2)c(OC)cc1N1CCN(CCN(C)C)CC1 [compound 976, N-(5-((6-((R)-3-benzylisoxazolidine-2-yl)pyrimidine-4-yl)amino)-2-(4-(2-(dimethylamino)ethyl)piperazine-1-yl)-4-methoxyphenyl) acrylamide] | C (500 nM ≤ GI50 < 5000 nM)
C=CC(=O)Nc1cc(Nc2cc(N3OCC[C@@H]3c3cccc(Cl)c3)ncn2)c(OC)cc1N1CCC(N2CCN(C3COC3)CC2)CC1 [Example 199, N-(5-((6-((R)-3-(3-chlorophenyl)isoxazolidine-2-yl)pyrimidine-4-yl)amino)-4-methoxy-2-(4-(4-(oxetane-3-yl)piperazine-1-yl)piperidine-1-yl)phenyl)acrylamide] | A (GI50 < 50 nM)
C=CC(=O)Nc1cc(Nc2cc(N3OCC[C@@H]3Cc3ccc(C(F)(F)F)cc3)ncn2)c(OC)cc1N1CCC(N2C[C@H]3C[C@@H]2CO3)CC1 [compound 1051, N-(2-(4-((1R,4R)-2-oxa-5-azabicyclo [2.2.1]heptane-5-yl)piperidine-1-yl)-4-methoxy-5-((6-((S)-3-(4-(trifluoromethyl)benzyl)isoxazolidine-2-yl)pyrimidine-4-yl)amino)phenyl)acrylamide] | A (GI50 < 50 nM)
